Results reported in PubChem BioAssay (NCI).
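Where inhibition never reached the appropriate level, the endpoint shown equals the highest concentration tested. Otherwise, values were interpolated linearly from a five-concentration, 48-hour dose response in 96-well plates. The concentration for 50% growth inhibition is given as GI50. At the TGI there is no net growth.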

Tests used:
Assay in all cases: NCI anticancer screen, dose series, 48 h
A549 NSCLC = test system: A549 NSCLC
EKVX NSCLC = test system: EKVX NSCLC
HS 578T breast = test system: HS 578T breast
HT29 colon = test system: HT29 colon
KM12 colon = test system: KM12 colon
OVCAR-4 ovarian = test system: OVCAR-4 ovarian
RXF 393 renal = test system: RXF 393 renal
SF-295 CNS = test system: SF-295 CNS
SK-OV-3 ovarian = test system: SK-OV-3 ovarian
U251 CNS = test system: U251 CNS

O=C(c1cc(-c2cc3c(cc2C(=O)N2Cc4ccccc4C[C@H]2CN2CCOCC2)OCO3)n2c1CCCC2)N(c1ccccc1)c1ccc(O)cc1
GI50 (A549 NSCLC): 5.15 µM
TGI (A549 NSCLC): > 100 µM
GI50 (EKVX NSCLC): 5.31 µM
TGI (EKVX NSCLC): > 100 µM
GI50 (HS 578T breast): 6.05 µM
TGI (HS 578T breast): > 100 µM
GI50 (HT29 colon): 5.14 µM
TGI (HT29 colon): > 100 µM
GI50 (KM12 colon): 12.9 µM
TGI (KM12 colon): > 100 µM
GI50 (OVCAR-4 ovarian): 8.35 µM
TGI (OVCAR-4 ovarian): > 100 µM
GI50 (RXF 393 renal): 2.77 µM
TGI (RXF 393 renal): 17.5 µM
GI50 (SF-295 CNS): 5.14 µM
TGI (SF-295 CNS): > 100 µM
GI50 (SK-OV-3 ovarian): 12.7 µM
TGI (SK-OV-3 ovarian): > 100 µM
GI50 (U251 CNS): 6.99 µM
TGI (U251 CNS): > 100 µM

CNC1NC(=O)c2ccccc2N1Cc1ccc(F)cc1 (stereo unspecified)
TGI (A549 NSCLC): > 100 µM
TGI (EKVX NSCLC): > 100 µM
TGI (HS 578T breast): > 100 µM
TGI (HT29 colon): > 100 µM
TGI (KM12 colon): > 100 µM
TGI (OVCAR-4 ovarian): > 100 µM
TGI (RXF 393 renal): > 100 µM
TGI (SF-295 CNS): > 100 µM
TGI (SK-OV-3 ovarian): > 100 µM
TGI (U251 CNS): > 100 µM

CCC(C)/C=C(C)/C=C/C(=O)c1c(O)c(-c2ccc(O)cc2)c[nH]c1=O (stereo unspecified)
GI50 (A549 NSCLC): 4.3 µM
TGI (A549 NSCLC): 20.1 µM
GI50 (EKVX NSCLC): 4.08 µM
TGI (EKVX NSCLC): 17.6 µM
GI50 (HS 578T breast): 2.49 µM
TGI (HS 578T breast): 9.56 µM
GI50 (HT29 colon): 3.77 µM
TGI (HT29 colon): 14.6 µM
GI50 (KM12 colon): 3.41 µM
TGI (KM12 colon): 12.4 µM
GI50 (OVCAR-4 ovarian): 4.13 µM
TGI (OVCAR-4 ovarian): 25.3 µM
GI50 (RXF 393 renal): 1.96 µM
TGI (RXF 393 renal): 6.97 µM
GI50 (SF-295 CNS): 2.89 µM
TGI (SF-295 CNS): 13.7 µM
GI50 (SK-OV-3 ovarian): 6.32 µM
TGI (SK-OV-3 ovarian): 29.4 µM
GI50 (U251 CNS): 3.01 µM
TGI (U251 CNS): 13 µM

Cc1ccc2c(=O)[nH]sc2c1
TGI (A549 NSCLC): 43.1 µM
TGI (EKVX NSCLC): 30.6 µM
TGI (HS 578T breast): 40 µM
TGI (HT29 colon): 32.3 µM
TGI (OVCAR-4 ovarian): > 100 µM
TGI (RXF 393 renal): 28.6 µM
TGI (SF-295 CNS): > 100 µM
TGI (SK-OV-3 ovarian): > 100 µM
TGI (U251 CNS): 27.9 µM

CN1CCN(Cc2ccc(NC(=O)c3[nH]ncc3Nc3ncnc4c3CCC4)cc2)CC1
GI50 (A549 NSCLC): 2.18 µM
TGI (A549 NSCLC): 12.8 µM
GI50 (EKVX NSCLC): 2.38 µM
TGI (EKVX NSCLC): 6.6 µM
GI50 (HS 578T breast): 0.705 µM
TGI (HS 578T breast): 6.28 µM
GI50 (HT29 colon): 2.17 µM
TGI (HT29 colon): 8.79 µM
GI50 (KM12 colon): 0.767 µM
TGI (KM12 colon): 11.1 µM
GI50 (OVCAR-4 ovarian): 1.49 µM
TGI (OVCAR-4 ovarian): 6.67 µM
GI50 (RXF 393 renal): 1.4 µM
TGI (RXF 393 renal): 3.23 µM
GI50 (SF-295 CNS): 2.24 µM
TGI (SF-295 CNS): 12 µM
GI50 (SK-OV-3 ovarian): 0.185 µM
TGI (SK-OV-3 ovarian): 17.5 µM
GI50 (U251 CNS): 1.48 µM
TGI (U251 CNS): 12.4 µM

Cn1c2ccccc2c2nnc(N/N=C/c3ccccn3)nc21
GI50 (A549 NSCLC): 0.461 µM
TGI (A549 NSCLC): > 27.5 µM
GI50 (EKVX NSCLC): 0.293 µM
TGI (EKVX NSCLC): > 32 µM
GI50 (HS 578T breast): 2.06 µM
TGI (HS 578T breast): 82.9 µM
GI50 (HT29 colon): 0.529 µM
TGI (HT29 colon): > 100 µM
GI50 (KM12 colon): 0.535 µM
TGI (KM12 colon): > 38.3 µM
GI50 (OVCAR-4 ovarian): 0.419 µM
TGI (OVCAR-4 ovarian): > 58.9 µM
GI50 (RXF 393 renal): 2.8 µM
TGI (RXF 393 renal): > 42.3 µM
GI50 (SF-295 CNS): 0.37 µM
TGI (SF-295 CNS): > 23.9 µM
GI50 (SK-OV-3 ovarian): 0.421 µM
TGI (SK-OV-3 ovarian): 21.9 µM
GI50 (U251 CNS): 0.357 µM
TGI (U251 CNS): 14 µM

CCOC(=O)[C@@H](C)C[C@H](Cc1ccccc1)NC(=O)c1csc([C@@H](C[C@H](C(C)C)N(C)C(=O)[C@H](CCC(C)C)NC(=O)[C@H]2CCCCN2C)OC(C)=O)n1
GI50 (A549 NSCLC): 0.0145 µM
TGI (A549 NSCLC): > 33.3 µM
GI50 (EKVX NSCLC): 0.0153 µM
TGI (EKVX NSCLC): > 33.3 µM
GI50 (HS 578T breast): 0.00922 µM
TGI (HS 578T breast): 3.54 µM
GI50 (HT29 colon): < 0.00333 µM
TGI (HT29 colon): 0.0811 µM
GI50 (KM12 colon): < 0.00333 µM
TGI (KM12 colon): 4.81 µM
GI50 (OVCAR-4 ovarian): 0.497 µM
TGI (OVCAR-4 ovarian): > 33.3 µM
GI50 (SF-295 CNS): 0.00575 µM
TGI (SF-295 CNS): 3.68 µM
GI50 (SK-OV-3 ovarian): 0.00929 µM
TGI (SK-OV-3 ovarian): 9.26 µM
GI50 (U251 CNS): 0.00758 µM
TGI (U251 CNS): 5.92 µM

C#CC[C@H](c1nc2cc(Cl)ccc2c(=O)n1Nc1ccccc1)N(CCCN)C(=O)c1cccc(Cl)c1F
GI50 (A549 NSCLC): 0.255 µM
TGI (A549 NSCLC): 1.87 µM
GI50 (HS 578T breast): 0.162 µM
TGI (HS 578T breast): 1.19 µM
GI50 (HT29 colon): 0.337 µM
TGI (HT29 colon): 1.32 µM
GI50 (KM12 colon): 0.18 µM
TGI (KM12 colon): 1.63 µM
GI50 (OVCAR-4 ovarian): 1.16 µM
TGI (OVCAR-4 ovarian): 2.54 µM
GI50 (RXF 393 renal): 0.284 µM
TGI (RXF 393 renal): 1.37 µM
GI50 (SF-295 CNS): 0.353 µM
TGI (SF-295 CNS): 1.48 µM
GI50 (SK-OV-3 ovarian): 0.116 µM
TGI (SK-OV-3 ovarian): 1.59 µM
GI50 (U251 CNS): 0.293 µM
TGI (U251 CNS): 1.27 µM

CO/N=C1/NC(=O)/C(=C/c2ccc3ncccc3c2)S1
GI50 (A549 NSCLC): 10.7 µM
TGI (A549 NSCLC): > 25 µM
GI50 (HS 578T breast): 4.06 µM
TGI (HS 578T breast): 17.5 µM
GI50 (HT29 colon): 16.8 µM
TGI (HT29 colon): > 25 µM
GI50 (KM12 colon): > 25 µM
TGI (KM12 colon): > 25 µM
GI50 (OVCAR-4 ovarian): > 25 µM
TGI (OVCAR-4 ovarian): > 25 µM
GI50 (RXF 393 renal): 9.81 µM
TGI (RXF 393 renal): > 25 µM
GI50 (SF-295 CNS): 19.9 µM
TGI (SF-295 CNS): > 25 µM
GI50 (SK-OV-3 ovarian): 7.78 µM
TGI (SK-OV-3 ovarian): > 25 µM
GI50 (U251 CNS): 9.39 µM
TGI (U251 CNS): > 25 µM

COc1ccc(C2=C(c3cn(C)c4ccccc34)C(=O)NC2=O)cc1OC
GI50 (A549 NSCLC): 8.44 µM
TGI (A549 NSCLC): > 25 µM
GI50 (HS 578T breast): 3.85 µM
TGI (HS 578T breast): > 20.6 µM
GI50 (HT29 colon): 6.78 µM
TGI (HT29 colon): > 25 µM
GI50 (KM12 colon): 6.34 µM
TGI (KM12 colon): > 25 µM
GI50 (OVCAR-4 ovarian): 10.6 µM
TGI (OVCAR-4 ovarian): > 25 µM
GI50 (RXF 393 renal): 6.44 µM
TGI (RXF 393 renal): > 25 µM
GI50 (SF-295 CNS): 10.4 µM
TGI (SF-295 CNS): > 25 µM
GI50 (SK-OV-3 ovarian): 6.72 µM
TGI (SK-OV-3 ovarian): > 25 µM
GI50 (U251 CNS): 7.62 µM
TGI (U251 CNS): > 25 µM
